# From ChEMBL document CHEMBL1201862, “PubChem BioAssay data set” (2004)
#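 Cells were grown in 96-well plates and exposed to each compound for 48 hours at five concentrations; endpoints were interpolated linearly between bracketing concentrations, or set to the highest concentration if not reached. Abbreviation: GI50, concentration required for 50% inhibition of growth.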 The source made the active and inactive calls. Rule as the data show it: active = GI50 up to about 1.1 µM and inactive = higher.
# Tests used:
# Assay in all cases: DTP human tumour cell line panel, 48 h
# OVCAR-3 = test system: OVCAR-3
# Malme-3M = test system: Malme-3M
# RPMI-8226 = test system: RPMI-8226
# TK-10 = test system: TK-10
# SK-MEL-5 = test system: SK-MEL-5
# KM-20L2 = test system: KM-20L2
# SN12C = test system: SN12C
# SF-268 = test system: SF-268
# LOX IMVI = test system: LOX IMVI
# COLO 205 = test system: COLO 205
# HCC 2998 = test system: HCC 2998
# ACHN = test system: ACHN
# HT-29 = test system: HT-29
# 786-0 = test system: 786-0
SMILES,GI50 (OVCAR-3),GI50 (Malme-3M),GI50 (RPMI-8226),GI50 (TK-10),GI50 (SK-MEL-5),GI50 (KM-20L2),GI50 (SN12C),GI50 (SF-268),GI50 (LOX IMVI),GI50 (COLO 205),GI50 (HCC 2998),GI50 (ACHN),GI50 (HT-29),GI50 (786-0)
COc1ccc(C(=O)C2=NON3OC23C(=O)c2ccc(OC)cc2)cc1 (stereo not drawn),9.59 µM (inactive),12.9 µM (inactive),3.37 µM (inactive),19.7 µM (inactive),14.1 µM (inactive),19.1 µM (inactive),15.3 µM (inactive),18.8 µM (inactive),5.58 µM (inactive),7.62 µM (inactive),18.1 µM (inactive),17.5 µM (inactive),22.4 µM (inactive),3.44 µM (inactive)
O=C1CC2CCCC23CC2(CCN13)OCCO2 (stereo not drawn),> 100 µM (inactive),> 100 µM (inactive),> 100 µM (inactive),> 100 µM (inactive),> 100 µM (inactive),> 100 µM (inactive),> 100 µM (inactive),> 100 µM (inactive),> 100 µM (inactive),> 100 µM (inactive),> 100 µM (inactive),> 100 µM (inactive),> 100 µM (inactive),> 100 µM (inactive)
O=C(O)CCCSC(=O)Nc1ccc(/N=N/c2ccccc2)cc1,> 100 µM (inactive),,> 100 µM (inactive),> 100 µM (inactive),,> 100 µM (inactive),> 100 µM (inactive),56.1 µM (inactive),> 100 µM (inactive),> 100 µM (inactive),> 100 µM (inactive),> 100 µM (inactive),> 100 µM (inactive),> 100 µM (inactive)
COc1ccc(CCc2cc(OC)cc(OC)c2)cc1,10.9 µM (inactive),33.7 µM (inactive),16.1 µM (inactive),54.2 µM (inactive),19.2 µM (inactive),13.6 µM (inactive),45.9 µM (inactive),39.4 µM (inactive),38.8 µM (inactive),12 µM (inactive),10.2 µM (inactive),58.5 µM (inactive),6.11 µM (inactive),47.1 µM (inactive)
CCCCCCCCCCCCCC(=O)OCC1OC(n2cc(F)c(=O)[nH]c2=O)C(N)C(OC(=O)CCCCCCCCCCCCC)C1O (stereo not drawn),> 100 µM (inactive),> 100 µM (inactive),> 100 µM (inactive),> 100 µM (inactive),> 100 µM (inactive),> 100 µM (inactive),> 100 µM (inactive),> 100 µM (inactive),> 100 µM (inactive),> 100 µM (inactive),> 100 µM (inactive),> 100 µM (inactive),> 100 µM (inactive),> 100 µM (inactive)
CCOC1=C2C(C)(CCC3[C@@]4(C)C=CC(=O)C(C)(C)C4CC(O)[C@@]23C)C(c2ccoc2)C1=O (stereo partly drawn),17 µM (inactive),> 10 µM (inactive),15.6 µM (inactive),25.2 µM (inactive),15.2 µM (inactive),17.1 µM (inactive),25.1 µM (inactive),24.2 µM (inactive),14.9 µM (inactive),13.1 µM (inactive),16.3 µM (inactive),18.4 µM (inactive),10.9 µM (inactive),15.3 µM (inactive)
COc1ccc(C(=O)C#Cc2cnc(O)nc2O)cc1,9.1 µM (inactive),5.08 µM (inactive),13.3 µM (inactive),9.31 µM (inactive),13.5 µM (inactive),9.86 µM (inactive),6.32 µM (inactive),21.1 µM (inactive),3.21 µM (inactive),11.9 µM (inactive),18.7 µM (inactive),14.8 µM (inactive),11.5 µM (inactive),9.06 µM (inactive)
O=C(/C=C/c1ccccc1Cl)c1cccc2ccccc12,4.4 µM (inactive),16.1 µM (inactive),17.2 µM (inactive),15.8 µM (inactive),19.4 µM (inactive),7.06 µM (inactive),48.6 µM (inactive),12.9 µM (inactive),11.4 µM (inactive),19 µM (inactive),14.5 µM (inactive),16.7 µM (inactive),10.4 µM (inactive),5.15 µM (inactive)
Cc1cc(Cl)cc2c1NC(=O)C2(O)CC(=O)c1ccc(F)cc1 (stereo not drawn),37.8 µM (inactive),29.3 µM (inactive),27.2 µM (inactive),> 100 µM (inactive),,> 100 µM (inactive),27.2 µM (inactive),67 µM (inactive),27.7 µM (inactive),24.8 µM (inactive),36.1 µM (inactive),32.5 µM (inactive),48.1 µM (inactive),27 µM (inactive)
O=C(/C=C/c1ccccc1O)c1ccccc1O,> 100 µM (inactive),> 100 µM (inactive),40 µM (inactive),> 100 µM (inactive),> 100 µM (inactive),> 100 µM (inactive),> 100 µM (inactive),> 100 µM (inactive),> 100 µM (inactive),> 100 µM (inactive),> 100 µM (inactive),> 100 µM (inactive),> 100 µM (inactive),> 100 µM (inactive)
CC1(C)OC2C(CCP(=O)(O)O)OC(c3nc(C(N)=O)cs3)C2O1 (stereo not drawn),,> 100 µM (inactive),> 100 µM (inactive),> 100 µM (inactive),,> 100 µM (inactive),> 100 µM (inactive),> 100 µM (inactive),> 100 µM (inactive),> 100 µM (inactive),> 100 µM (inactive),> 100 µM (inactive),> 100 µM (inactive),> 100 µM (inactive)
CCN(CC)CCCCC1CCN(CC(=O)N2c3ccccc3NC(=O)CC2C)CC1 (stereo not drawn),> 100 µM (inactive),> 100 µM (inactive),88.1 µM (inactive),> 100 µM (inactive),98.4 µM (inactive),> 100 µM (inactive),> 100 µM (inactive),> 100 µM (inactive),19.4 µM (inactive),> 100 µM (inactive),> 100 µM (inactive),> 100 µM (inactive),> 100 µM (inactive),> 100 µM (inactive)
COc1ccc(NC(=O)/C(Cc2nc3ccccc3nc2O)=N\O)c(OC)c1,> 100 µM (inactive),> 100 µM (inactive),> 100 µM (inactive),> 100 µM (inactive),> 100 µM (inactive),> 100 µM (inactive),> 100 µM (inactive),> 100 µM (inactive),> 100 µM (inactive),> 100 µM (inactive),> 100 µM (inactive),> 100 µM (inactive),> 100 µM (inactive),> 100 µM (inactive)
C[C@]12CC[C@H](OC(=O)Cc3ccc(N(CCCl)CCCl)cc3)CC1CC[C@@H]1C2CC[C@]2(C)NC(=O)CCC12 (stereo partly drawn),4.04 µM (inactive),15.8 µM (inactive),4.16 µM (inactive),19.9 µM (inactive),15.6 µM (inactive),5.58 µM (inactive),5.38 µM (inactive),9.64 µM (inactive),13.2 µM (inactive),5.4 µM (inactive),18.7 µM (inactive),4.04 µM (inactive),1.87 µM (inactive),11.5 µM (inactive)
Cc1cc(C)c2[s+]snc2c1,97.9 µM (inactive),> 100 µM (inactive),,> 100 µM (inactive),> 100 µM (inactive),> 100 µM (inactive),47.1 µM (inactive),60.5 µM (inactive),37.8 µM (inactive),> 100 µM (inactive),> 100 µM (inactive),> 100 µM (inactive),52.5 µM (inactive),> 100 µM (inactive)
CC1=NN(C(=O)CC(=O)N(C(=O)c2ccccc2Cl)c2ccc(C)cc2)C(=O)C1/N=N/c1ccc([N+](=O)[O-])cc1 (stereo not drawn),> 64.7 µM (inactive),> 100 µM (inactive),> 50.4 µM (inactive),49.5 µM (inactive),99.1 µM (inactive),> 55.6 µM (inactive),> 100 µM (inactive),44.6 µM (inactive),23.9 µM (inactive),> 43.6 µM (inactive),> 100 µM (inactive),> 53.7 µM (inactive),> 63.4 µM (inactive),29 µM (inactive)
CCOP(=O)(OCC)/C(C#N)=C\c1ccsc1,> 100 µM (inactive),> 100 µM (inactive),> 100 µM (inactive),> 100 µM (inactive),> 100 µM (inactive),> 100 µM (inactive),> 100 µM (inactive),> 100 µM (inactive),> 100 µM (inactive),> 100 µM (inactive),> 100 µM (inactive),> 100 µM (inactive),> 100 µM (inactive),> 100 µM (inactive)
COc1ccc([C@@H]2CC(=O)NCCCCNCCCN2)cc1,,> 100 µM (inactive),> 100 µM (inactive),> 100 µM (inactive),> 100 µM (inactive),> 100 µM (inactive),> 100 µM (inactive),> 100 µM (inactive),,> 100 µM (inactive),0.0131 µM (active),> 100 µM (inactive),> 100 µM (inactive),> 100 µM (inactive)
CC(C)(CN1CCCCC1)C(=O)/C=C/c1ccc(Br)cc1,2.07 µM (inactive),5.74 µM (inactive),3.07 µM (inactive),3.13 µM (inactive),4.67 µM (inactive),2.49 µM (inactive),2.57 µM (inactive),2.34 µM (inactive),2.03 µM (inactive),2.25 µM (inactive),16.5 µM (inactive),3.4 µM (inactive),3.1 µM (inactive),2.15 µM (inactive)
